Each compound was assayed against human recombinant DGK ξ (Homo sapiens (Human), UniProt Q13574) (assay: Evaluation of DGK ξ inhibitory effect (ADP-Glo Kinase Assay)).
Format: biochemical
Description: Test Example 1: Evaluation of DGK ξ Inhibitory Effect
The inhibitory effect of a test compound on human recombinant DGK ξ (Carna Biosciences, Inc., 12-410-20N) was examined by the following method in which detection is performed with ADP-Glo™ Kinase Assay (Promega Corporation).
To a 384-well plate (Greiner Bio-One Co., Ltd.), 3 μL of a […] dissolved in an assay buffer (40 mM Tris-HCl pH 7.5, 10 mM MgCl2, 1 mM dithiothreitol (DTT) and 0.1 mg/mL bovine serum albumin (BSA)) (90 ng/mL) was added, and 3 μL of the test compound diluted with the same assay buffer was added so that an intended final concentration was obtained. The mixture was left standing at room temperature for 15 minutes, 3 μL of a substrate (150 μM 1-oleoyl-2-acetyl-sn-glycerol (Sigma-Aldrich Co. LLC.), 480 μM phosphatidylserine (Avanti Polar Lipids, Inc.) and 150 μM UltraPure-ATP (attached to ADP-Glo)) was then added, and the mixture was left standing at room temperature for 30 minutes to react. Thereafter, 3 μL of an ADP-Glo Reagent was added, and the mixture was left standing at room temperature for 40 minutes to stop the enzyme reaction. Further, 6 μL of a Kinase-Detection Reagent was added, the mixture was left standing at room temperature for 30 minutes, and the luminescence was then measured using ARVO X3 (PerkinElmer, Inc.). The half maximal inhibitory concentration (IC50) was calculated by Sigmoid-Emax model non-linear regression analysis, where the signal value in solvent treatment was set to 0% inhibition and the signal value without addition of the DGK ξ enzyme was set to 100% inhibition. […] In the table, Ex represents the number of each Example described below. Also, in the table, compound C (cpd. C) represents the test compound of the Example 199 described in the international publication WO 2008/054702.

human recombinant DGK ξ, sequence (Q13574 whole entry): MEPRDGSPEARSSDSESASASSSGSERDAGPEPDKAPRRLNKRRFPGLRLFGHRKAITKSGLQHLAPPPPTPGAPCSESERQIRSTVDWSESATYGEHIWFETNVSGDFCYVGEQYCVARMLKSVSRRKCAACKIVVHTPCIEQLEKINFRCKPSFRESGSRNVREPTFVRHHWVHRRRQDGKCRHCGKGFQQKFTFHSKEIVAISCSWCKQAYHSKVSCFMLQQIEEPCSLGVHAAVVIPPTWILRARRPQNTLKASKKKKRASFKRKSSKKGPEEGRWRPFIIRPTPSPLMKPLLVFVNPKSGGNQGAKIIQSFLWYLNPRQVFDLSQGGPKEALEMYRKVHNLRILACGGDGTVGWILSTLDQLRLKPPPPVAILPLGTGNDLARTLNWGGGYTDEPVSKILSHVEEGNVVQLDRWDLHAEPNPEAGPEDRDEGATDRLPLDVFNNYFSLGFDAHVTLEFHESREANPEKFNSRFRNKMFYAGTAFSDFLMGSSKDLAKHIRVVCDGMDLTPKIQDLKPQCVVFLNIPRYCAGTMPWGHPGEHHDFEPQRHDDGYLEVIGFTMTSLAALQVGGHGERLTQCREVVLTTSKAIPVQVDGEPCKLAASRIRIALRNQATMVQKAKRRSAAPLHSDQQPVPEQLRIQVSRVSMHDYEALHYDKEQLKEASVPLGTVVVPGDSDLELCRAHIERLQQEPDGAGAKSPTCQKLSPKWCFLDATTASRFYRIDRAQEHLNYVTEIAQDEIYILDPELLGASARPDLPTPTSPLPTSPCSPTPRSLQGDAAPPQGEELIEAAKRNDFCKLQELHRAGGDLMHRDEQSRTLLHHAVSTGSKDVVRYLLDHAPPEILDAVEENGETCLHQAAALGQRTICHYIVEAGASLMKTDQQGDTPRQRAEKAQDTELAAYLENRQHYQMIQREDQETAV

First: O=C(Nc1ccc(OC2CCC2)c(F)c1C1=CCN(Cc2cc[nH]n2)CC1)c1csc(-c2ccnnc2)n1 [Example 4]
Second: O=C(Nc1ccc(OC2CC2)c(C(F)(F)F)c1C1=CCN(Cc2cc[nH]n2)CC1)c1csc(-c2ccnnc2)n1 [Example 3]
The IC50 of the first is 2.5-fold higher: 50 nM for the first, 20 nM for the second. The second is the more potent here.

Going from `CNC[C@H]1CCCN1c1c(NC(=O)c2csc(-c3ccnnc3)n2)ccc(Oc2ccccc2F)c1C(F)(F)F` [Example 20] to `CNC[C@@H]1CCCN(c2c(NC(=O)c3csc(-c4ccnnc4)n3)ccc(Oc3ccccc3F)c2C(F)(F)F)C1` [Example 83, N-[4-(2-fluorophenoxy)-2-{(3S)-3-[(methylamino)methyl]piperidin-1-yl}-3-(trifluoromethyl)phenyl]-2-(pyridazin-4-yl)-1,3-thiazole-4-carboxamide mono[(2E)-but-2-enedioate]], the IC50 falls from 44 nM to 5 nM (8.8-fold). The second is the more potent here.

Going from `CN[C@@H]1CCN2CCN(c3c(NC(=O)c4csc(-c5ccnnc5)n4)ccc(Oc4ccccc4)c3C(F)(F)F)C[C@@H]12` [Example 73] to `N[C@H]1CCN2CCN(c3c(NC(=O)c4csc(-c5ccnnc5)n4)ccc(Oc4ccccc4)c3C(F)(F)F)C[C@H]12` [Example 75], the IC50 rises from 0.7 nM to 6 nM (8.6-fold).

Going from `NC[C@H]1CCCN1c1c(NC(=O)c2csc(-c3ccnnc3)n2)ccc(Oc2ccccc2)c1C(F)(F)F` [Example 87] to `CNCC[C@H]1CCCN1c1c(NC(=O)c2csc(-c3ccnnc3)n2)ccc(Oc2ccccc2)c1C(F)(F)F` [Example 46], the IC50 rises from 20 nM to 40 nM (2-fold).

Compared with `NCC[C@@H]1CCCN(c2c(NC(=O)c3csc(-c4ccnnc4)n3)ccc(Oc3ccccc3)c2C(F)(F)F)C1` [Example 7], `NC[C@@H]1CCCN(c2c(NC(=O)c3csc(-c4ccnnc4)n3)ccc(Oc3ccccc3)c2C(F)(F)F)C1` [Example 84, N-{2-[(3S)-3-(aminomethyl)piperidin-1-yl]-4-phenoxy-3-(trifluoromethyl)phenyl}-2-(pyridazin-4-yl)-1,3-thiazole-4-carboxamide mono[(2E)-but-2-enedioate]] is 18-fold lower in IC50: 110 nM for the first, 6 nM for the second.

First: CNC[C@H]1CN(c2c(NC(=O)c3csc(-c4ccnnc4)n3)ccc(Oc3ccccc3)c2C(F)(F)F)CCO1 [Example 29]
Second: CNC[C@@H]1CN(c2c(NC(=O)c3csc(-c4ccnnc4)n3)ccc(Oc3ccccc3)c2C(F)(F)F)CCO1 [Example 26]
The IC50 of the first is 9.3-fold higher: 426 nM for the first, 46 nM for the second. The second is the more potent here.

Compared with `NC[C@@H]1CCCN(c2c(NC(=O)c3csc(-c4ccnnc4)n3)ccc(Oc3ccccc3F)c2C(F)(F)F)C1` [Example 86], `NC[C@@H]1CCCN(c2c(NC(=O)c3csc(-c4ccnnc4)n3)ccc(Oc3ccccc3Cl)c2C(F)(F)F)C1` [Example 35] is 1.5-fold lower in IC50: 3 nM for the first, 2 nM for the second.

Compared with `NC[C@@H]1CCCN(c2c(NC(=O)c3csc(-c4ccnnc4)n3)ccc(OC3CCCC3)c2C(F)(F)F)C1` [Example 15], `NC[C@@H]1CCCN(c2c(NC(=O)c3csc(-c4ccnnc4)n3)ccc(OC3CCC3)c2C(F)(F)F)C1` [Example 14] is 1.9-fold higher in IC50: 7 nM for the first, 13 nM for the second. The first is the more potent here.

`O=C(Nc1ccc(Oc2ccccc2)c(C(F)(F)F)c1N1CCCC2(CCNCC2)C1)c1csc(-c2ccnnc2)n1` [Example 42] and `NC[C@H]1CCCN(c2c(NC(=O)c3csc(-c4ccnnc4)n3)ccc(Oc3ccccc3)c2C(F)(F)F)C1` [Example 32] are within 1.5-fold of each other in IC50: 23 nM for the first, 31 nM for the second.

Compared with `O=C(Nc1cc(F)c(OC2CC2)c(F)c1C1=CCN(Cc2cc[nH]n2)CC1)c1csc(-c2ccnnc2)n1` [Example 5], `CN(C)C[C@@H]1CCCN(c2c(NC(=O)c3csc(-c4ccnnc4)n3)cc(F)c(Oc3ccccc3)c2F)C1` [Example 57] is 5-fold higher in IC50: 48 nM for the first, 240 nM for the second. The first is the more potent here.

Compared with `Cc1c(OC2CC2)ccc(NC(=O)c2csc(-c3ccnnc3)n2)c1N1CCC[C@@H](CN)C1` [Example 71], `Cc1c(Oc2ccccc2)ccc(NC(=O)c2csc(-c3ccnnc3)n2)c1N1CCC[C@@H](CN)C1` [Example 72] is 2.4-fold lower in IC50: 44 nM for the first, 18 nM for the second.

Going from `NC[C@@H]1CN(c2c(NC(=O)c3csc(-c4ccnnc4)n3)ccc(Oc3ccccc3)c2C(F)(F)F)CCO1` [Example 25] to `NC[C@H]1CN(c2c(NC(=O)c3csc(-c4ccnnc4)n3)ccc(Oc3ccccc3)c2C(F)(F)F)CCO1` [Example 27], the IC50 rises from 42 nM to 90 nM (2.1-fold).

First: NC[C@@H]1CCCN(c2c(NC(=O)c3csc(-c4ccnnc4)n3)ccc(Oc3cccc(Cl)c3)c2C(F)(F)F)C1 [Example 40]
Second: NC[C@@H]1CCCN(c2c(NC(=O)c3csc(-c4ccnnc4)n3)ccc(Oc3c(F)cccc3F)c2C(F)(F)F)C1 [Example 22]
The IC50 of the first is 10-fold higher: 50 nM for the first, 5 nM for the second. The second is the more potent here.

First: COc1c(Oc2ccccc2)ccc(NC(=O)c2csc(-c3ccnnc3)n2)c1N1CCC[C@@H](CN)C1 [Example 68]
Second: NC[C@@H]1CCCN(c2c(NC(=O)c3csc(-c4ccnnc4)n3)ccc(Oc3ccccc3)c2C2CC2)C1 [Example 67]
The IC50 of the first is 2.4-fold lower: 5 nM for the first, 12 nM for the second.

Compared with `Cn1nccc1Oc1ccc(NC(=O)c2csc(-c3ccnnc3)n2)c(N2CCC[C@@H](CN)C2)c1C(F)(F)F` [Example 44], `Cn1cc(Oc2ccc(NC(=O)c3csc(-c4ccnnc4)n3)c(N3CCC[C@@H](CN)C3)c2C(F)(F)F)cn1` [Example 16] is 2.2-fold higher in IC50: 19 nM for the first, 41 nM for the second. The first is the more potent here.

Going from `N#Cc1ccccc1Oc1ccc(NC(=O)c2csc(-c3ccnnc3)n2)c(N2CCC[C@@H](CN)C2)c1C(F)(F)F` [Example 38] to `NC[C@@H]1CCCN(c2c(NC(=O)c3csc(-c4ccnnc4)n3)ccc(Oc3ccccn3)c2C(F)(F)F)C1` [Example 39], the IC50 rises from 3 nM to 7 nM (2.3-fold). The first is the more potent here.

Going from `CNC[C@@H]1CCCN(c2c(NC(=O)c3csc(-c4ccnnc4)n3)ccc(Oc3ccc(F)cc3)c2C(F)(F)F)C1` [Example 43] to `CNC[C@@H]1CCCN(c2c(NC(=O)c3csc(-c4ccnnc4)n3)ccc(Oc3ccccc3Cl)c2C(F)(F)F)C1` [Example 36], the IC50 falls from 36 nM to 13 nM (2.8-fold). The second is the more potent here.

`N[C@H]1CCN2CCN(c3c(NC(=O)c4csc(-c5ccnnc5)n4)ccc(Oc4ccccc4)c3C(F)(F)F)C[C@@H]12` [Example 74] and `N[C@@H]1CCN2CCN(c3c(NC(=O)c4csc(-c5ccnnc5)n4)ccc(Oc4ccccc4)c3C(F)(F)F)C[C@H]12` [Example 79] are within 1.5-fold of each other in IC50: 41 nM for the first, 47 nM for the second.

Going from `NC[C@@H]1CCCN(c2c(NC(=O)c3csc(-c4ccnnc4)n3)ccc(-c3ccccc3)c2C(F)(F)F)C1` [Example 28] to `NC[C@@H]1CCCN(c2c(NC(=O)c3csc(-c4ccnnc4)n3)ccc(Nc3ccccc3)c2C(F)(F)F)C1` [Example 18], the IC50 falls from 42 nM to 19 nM (2.2-fold).

First: CNC1(C(N)=O)CCN(c2ccccc2NC(=O)c2csc(-c3ccnnc3)n2)CC1 [cpd. C, reference compound]
Second: NC[C@@H]1CCCN(c2c(NC(=O)c3csc(-c4ccnnc4)n3)ccc(S(=O)(=O)c3ccccc3)c2C(F)(F)F)C1 [Example 66]
The IC50 of the first is higher: greater than 2000 nM for the first, 32 nM for the second.

Compared with `N[C@@H]1CCN2CCN(c3c(NC(=O)c4csc(-c5ccnnc5)n4)ccc(OC4CC4)c3C(F)(F)F)C[C@@H]12` [Example 76], `CN[C@@H]1CCN2CCN(c3c(NC(=O)c4csc(-c5ccnnc5)n4)ccc(OC4CC4)c3C(F)(F)F)C[C@@H]12` [Example 77] is 3-fold lower in IC50: 6 nM for the first, 2 nM for the second.

First: NC[C@@H]1CCCN(c2c(NC(=O)c3csc(-c4ccnnc4)n3)ccc(N3CCCC3)c2C(F)(F)F)C1 [Example 47]
Second: O=C(Nc1ccc(Oc2ccccc2)c(C(F)(F)F)c1N1CCOC2(CCN(CCO)CC2)C1)c1csc(-c2ccnnc2)n1 [Example 60]
The IC50 of the first is 49-fold higher: 147 nM for the first, 3 nM for the second.
